In brackets after ≈: the same amount, converted by molar mass. Entries after “also recorded” stand apart in the source; their conditions may differ. Read-outs that look alike come from different tables or passages of the source. Blank lines part the entries; values can stand above or below the compound they belong to.
Assays:
[1] = test system: SAOS-2, Hela, HT29, U87MG and SK-N-DZ cells; assay: cytotoxic activity in cancer cell lines by cell numbers; format: cell-based; conditions: up to 20 μM; uncoated dishes or coated with vitronectin or fibrinogen
Protocol: For example, cytotoxic activity of AV-398 was determined in several cancer cell lines (SAOS-2, Hela, HT29, U87MG and SK-N-DZ cells) by assessing cell numbers after treating cell lines with varying concentration of up to 20 μM. Experiments were performed either on uncoated dishes, or on dishes coated with vitronectin or fibrinogen. In addition, tumor cell lines were treated in parallel with echistatin (Gan Z R et al (1998)). […] Similar data were recently published showing cytotoxic activity also only against MDA-MB-435 breast cancer cells (Dayam R et al, 2006).

[2] = rat clinical pathology (serum chemistry and hematology); format: in vivo; conditions: rats, single 5 mg/kg IV or 20 mg/kg PO
Protocol: (§1) Preliminary pharmacokinetic and preliminary toxicology information was obtained following a single intravenous dose of 5 mg/kg and a single 20 mg/kg PO dose to male Sprague-Dawley rats for 5 separate test articles. AV-398 was dosed both via the IV and PO routes. Blood was collected from the animals in Groups 1 through 10 for pharmacokinetic analysis. Approximately 0.25 mL of blood was collected in potassium EDTA tubes via the jugular cannulae for all time points. For all IV treated animals, blood was collected at 9 time points (0.083, 0.25, 0.5, 1, 2, 4, 6, 8 and 12 hour post-dose) via the jugular cannulae. For all animals treated by oral gavage, blood was collected at 7 time points (0.5, 1, 2, 4, 6, 8 and 12 hour post-dose) via the jugular cannulae. At the final time point additional blood volume was collected in a separate EDTA tube from each animal for clinical pathology evaluation (including serum chemistry and hematology). Predose samples were collected from the extra animals which were not assigned to any of the dose groups. The plasma samples were analyzed by LC-MS/MS to determine the plasma concentrations of drug candidates. Pharmacokinetic analysis of the plasma concentration data was conducted using non-compartmental analysis with WinNonlin Version 4.1. […] The oral absorption of AV-398 when administered at 20 mg/kg dose as a suspension was low at an average of 8.4%.

ocular angiogenesis = assay: conjunctival incision angiogenesis model in pigs, eye drops; format: in vivo, pig
Source text: AV-398 inhibits ocular angiogenesis in vivo in a widely accepted large animal model. The cornea is an ideal model system for angiogenesis in general, and more specifically for angiogenesis of the eye. The corneal angiogenesis assay is one of the most widely used in vivo assay for the evaluation of factors influencing angiogenesis (Auerbach R, 2003, Thiele W, 2006). One reason that makes the cornea an ideal object for observing neovascularization is its normal lack of vascularity, maintained by different molecular mechanisms. New vessels can easily be identified by visual inspection alone and quantified with the help of computerized image analysis programs. The effect of an ophthalmological formulation of AV-398 after a conjunctival insult with subsequent angiogenesis in a large animal model was investigated in order to test whether the in vitro data, such as anti-proliferative effects on human endothelial cells, could be reproduced in vivo.
Six white pigs weighing 10 to 15 kg were included. First, corneae and conjunctivae were anaesthesized by local application of lidocaine 4%. Then, an incision of 0.5 cm length through the conjunctival tunica sclerae to the substantia propria was placed in parallel to the dorsal corneal limbus at a distance of approximately 2 mm. The animals were treated as follows. The right eye of each animal was treated with a commercially available ocular eye drop solution (PROTAGENT® EYE DROPS 2%) containing 100 μg/ml of AV-398. The corresponding left eyes of each animal were control-treated with the same eye drop solution alone. Two droplets (˜100 μl) of AV-398 were applied in the right eye immediately after setting of the incision and two droplets of the ophthalmologic carrier formula as negative control in the left eye of the same animal. Animals received AV-398 as well as the eye drops 0.5 hrs post incision and the same treatment at 3 hrs post incision.

[3] = test system: chorioallantoic membrane (CAM) of the developing chicken embryo; assay: chicken egg chorioallantoic membrane (CAM) assay; format: in vivo; conditions: applied on CAM day 6 p.f., incubated until day 11 p.f.
Source text: Local application of AV-398 inhibits in vivo angiogenesis as evidenced by the chicken egg chorioallantoic membrane model. The chorioallantoic membrane (CAM) of the developing chicken embryo serves as an alternative to the traditional mammalian in vivo models, and further corroborates the findings in pigs described above and has clear relevance for the treatment e.g. dermatological indications linked to neoangiogenesis. AV-398 was applied over 5 days.
Eggs were opened on day 6 post fertilization (p.f.). Substances (200 μl respectively) were applied on the CAM on day 6 p.f. and incubated until day 11 p.f. As a vehicle control, 1% DMSO in PBS (phosphate-buffered saline solution pH 7.4) without AV-398 was used. Eggs were inspected daily by stereo-microscopy and pictures were taken (6× magnification).

endothelial cell lines = assay: proliferation assay of primary endothelial cells, direct cell counting; format: cell-based, human
Protocol: Primary endothelial cell lines (HMVEC-dLyAd—human dermal lymphatic microvascular endothelial cells (EC), dermal blood microvascular EC, HMVEC-LB lung blood microvascular EC, HMVEC-C cardiac human microvascular endothelial cells and MVEC-d—dermal microvascular EC) are from Cambrex Bio Science (Cambrex Bio Science Walkersville Inc., Walkersville, Md., USA). Cell lines are cultured according to the manufacturer's recommendations.
For proliferation assays, cells are seeded in 24- to 96-well plates in medium at different concentrations according to the cell type. After 24 hours, the medium is removed and replaced with fresh medium containing increasing concentrations of the compounds. The plates are then incubated for additional 24 to 72 hours, depending on the type of the experiment. Cells are then trypsinized and collected for direct counting. Results are plotted and expressed as means (±SE) for each compound and for a given concentration.

αvβ3-receptor = αvβ3-receptor (Homo sapiens, UniProt P05106+P06756); conditions: cited from earlier work
Sequence of αvβ3-receptor (P06756 31-889 limits assumed): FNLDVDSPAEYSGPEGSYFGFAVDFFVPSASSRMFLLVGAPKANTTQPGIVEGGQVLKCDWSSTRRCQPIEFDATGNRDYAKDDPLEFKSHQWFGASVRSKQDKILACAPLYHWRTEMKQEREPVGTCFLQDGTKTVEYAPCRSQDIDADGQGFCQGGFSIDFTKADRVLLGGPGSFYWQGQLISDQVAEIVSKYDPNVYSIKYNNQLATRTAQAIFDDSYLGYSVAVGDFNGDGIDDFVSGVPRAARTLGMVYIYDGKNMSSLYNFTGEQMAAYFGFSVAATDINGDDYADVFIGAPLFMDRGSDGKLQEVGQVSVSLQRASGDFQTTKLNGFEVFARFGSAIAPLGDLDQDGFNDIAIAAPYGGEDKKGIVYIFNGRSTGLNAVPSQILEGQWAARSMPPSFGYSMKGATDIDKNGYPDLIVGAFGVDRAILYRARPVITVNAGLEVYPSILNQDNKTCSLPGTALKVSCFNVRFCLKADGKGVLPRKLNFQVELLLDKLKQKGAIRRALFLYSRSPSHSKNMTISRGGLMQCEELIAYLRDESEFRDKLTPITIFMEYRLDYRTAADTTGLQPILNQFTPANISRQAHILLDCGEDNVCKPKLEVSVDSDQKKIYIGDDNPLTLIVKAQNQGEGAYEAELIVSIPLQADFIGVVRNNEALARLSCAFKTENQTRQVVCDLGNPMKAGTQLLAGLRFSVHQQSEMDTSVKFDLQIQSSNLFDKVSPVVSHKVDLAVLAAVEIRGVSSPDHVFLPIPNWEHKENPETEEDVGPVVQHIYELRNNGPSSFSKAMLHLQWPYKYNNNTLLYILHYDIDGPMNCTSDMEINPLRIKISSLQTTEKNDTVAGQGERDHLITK
Sequence of αvβ3-receptor (P06756 891-1048 partner limits assumed): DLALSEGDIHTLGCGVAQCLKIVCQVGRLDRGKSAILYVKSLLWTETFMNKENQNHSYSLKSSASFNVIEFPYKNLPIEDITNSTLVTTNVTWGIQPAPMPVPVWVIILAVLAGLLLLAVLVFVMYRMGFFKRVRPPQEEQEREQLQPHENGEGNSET
Sequence of αvβ3-receptor (P05106 27-788): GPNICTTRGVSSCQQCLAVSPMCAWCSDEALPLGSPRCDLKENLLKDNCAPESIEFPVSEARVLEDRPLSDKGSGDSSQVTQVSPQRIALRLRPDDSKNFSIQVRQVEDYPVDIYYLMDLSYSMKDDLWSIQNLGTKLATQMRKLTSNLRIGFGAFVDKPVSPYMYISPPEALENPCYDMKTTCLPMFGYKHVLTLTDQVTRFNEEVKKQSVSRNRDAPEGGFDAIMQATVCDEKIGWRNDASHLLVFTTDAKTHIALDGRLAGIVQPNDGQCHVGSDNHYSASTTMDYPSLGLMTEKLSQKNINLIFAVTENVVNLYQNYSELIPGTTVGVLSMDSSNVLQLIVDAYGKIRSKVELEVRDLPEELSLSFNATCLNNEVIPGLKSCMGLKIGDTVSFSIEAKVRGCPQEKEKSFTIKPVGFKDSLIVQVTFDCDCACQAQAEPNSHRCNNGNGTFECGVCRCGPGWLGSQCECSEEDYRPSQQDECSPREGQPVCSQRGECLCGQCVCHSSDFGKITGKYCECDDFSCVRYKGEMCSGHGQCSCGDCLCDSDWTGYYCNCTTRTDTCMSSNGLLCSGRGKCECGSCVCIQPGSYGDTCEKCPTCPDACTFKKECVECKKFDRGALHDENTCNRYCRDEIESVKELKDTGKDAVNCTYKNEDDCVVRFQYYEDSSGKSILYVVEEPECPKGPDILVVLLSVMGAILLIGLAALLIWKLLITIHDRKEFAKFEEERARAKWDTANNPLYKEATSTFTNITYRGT

MDA-MB-435 = assay: cytotoxic activity in breast cancer cell line; format: cell-based; conditions: up to 20 μM
solubility = format: physicochemical
Protocol: Sufficiently concentrated solutions are readily achievable. AV-398 is soluble in PBS 7.4 at 100 μg/ml, in Tris.Cl buffer at 1 mg/ml, and as a sodium salt at least up to 20 mg/ml.

HUVEC = assay: growth inhibition of HUVEC cell lines; format: cell-based; conditions: Homo sapiens, read-out: IC50 for growth inhibition of HUVECs
Protocol: For proliferation assays, cells are seeded in 24- to 96-well plates in medium at different concentrations according to the cell type. […] Cells are then trypsinized and collected for direct counting. Results are plotted and expressed as means (±SE) for each compound and for a given concentration.
In Table 2, the group “R” is defined as follows: […]

[4] = rat pharmacokinetics, plasma LC-MS/MS; format: in vivo; conditions: for half-life: iv, 5 mg/kg
Protocol: as §1

endothelial cells = conditions: read-out: IC50, colony-forming ability of endothelial cells; cited from earlier work

effects on hematological and serum chemistry parameters [2]: no side-related effects | bleeding surrounding the incision (ocular angiogenesis; immediately after treatment): marked diffuse bleeding | solubility (solubility; Tris.Cl buffer, aqueous buffer): 1 mg/mL (≈ 2510 µM) | solubility (solubility; as a sodium salt): ≥ 20 mg/mL | solubility (solubility; pH 7.4, aqueous buffer, PBS 7.4): 0.1 mg/mL (≈ 251 µM) | oral absorption (average) ([4]; 20 mg/kg as a suspension): 8.4% | peak plasma concentration (average) ([4]; IV 5 mg/kg): 1736.56 ng/mL | time of peak plasma concentration ([4]; IV 5 mg/kg): 0.083 h | peak plasma concentration (mean) ([4]; PO 20 mg/kg suspension): 54.07 ng/mL | AUC(0-inf) ([4]; male, Sprague-Dawley, plasma, IV 5 mg/kg): 0.69 µg·h/mL | AUC(0-t) ([4]; male, Sprague-Dawley, plasma, PO 20 mg/kg suspension, read-out: average AUC (0-12 hr)): 0.234 µg·h/mL | half-life ([4]; male, Sprague-Dawley, plasma, IV 5 mg/kg, read-out: Terminal plasma half-life (converted)): 30 min | half-life ([4]; male, Sprague-Dawley, plasma, IV 5 mg/kg, read-out: terminal plasma half-life (range)): 10.8 to 40.8 min | half-life ([4]; male, Sprague-Dawley, plasma, after intravenous administration, read-out: terminal plasma half-life (converted)): 30 min
Compound: CCOc1cc(C=C2S/C(=N/c3ccc(C(=O)O)cc3)N(C)C2=O)ccc1O (stereo in doubt) [AV-398, 4-({5-[(E)-1-(3-ethoxy-4-hydroxyphenyl)methylidene]-3-methyl-4-oxo-1,3-thiazolan-2-yliden}amino)benzoic acid]
effects on cancer cell lines (cytotoxic activity) [1]: no meaningful effects | neoangiogenesis on conjunctivae vs control-treated eyes (ocular angiogenesis; eye drops 100 μg/ml, right eye, left eye vehicle): diminished neoangiogenesis | local or systemic adverse side effects (ocular angiogenesis; three weeks post incision): no local or systemic adverse side effects | vascularization of CAM / chicken embryo vs vehicle control [3]: markedly decreased vascularization; also recorded: significant reduction of vascularization | IC50 (endothelial cell lines; Homo sapiens, Endothelial cell, endothelial cells (lung, lymphatics, umbilical), FIGS. 1-3, read-out: Half-maximal growth inhibition): 0.4 µM | IC50 (endothelial cell lines; Homo sapiens, endothelial cell lines, read-out: 50% inhibitory concentration): 0.2 to 0.5 µM | αυβ3 binding affinity (αvβ3-receptor): 240 nM | activity against breast cancer cell line MDA-MB-435 (MDA-MB-435): limited activity | IC50 (HUVEC): < 0.3 µM

Compound: CC(C)[C@H]1C(=O)N[C@@H](CCCN=C(N)N)C(=O)NCC(=O)N[C@@H](CC(=O)O)C(=O)N[C@H](Cc2ccccc2)C(=O)N1C [Cilengitide, cycloL-Arg-Gly-L-Asp-D-Phe-N [Me] L-Val]
IC50 (endothelial cells): 6.7 ± 1.2 µM

Compound: echistatin [reference compound]
IC50 (endothelial cell lines; endothelial cells (lung, lymphatics, umbilical), FIGS. 1-3, read-out: Half-maximal growth inhibition): 0.8 µM

— patent US20130102645A1, “Methods and compositions for controlling vascularization in ophthalmological and dermatological diseases” (AVIENNE PHARMACEUTICALS GMBH, priority 2011, published 2013)
